# Patent US20140243210A1, “PURIFICATION OF IMMUNOGLOBULINS USING AFFINITY CHROMATOGRAPHY AND PEPTIDE LIGANDS” (priority 2005, published 2014)
# “And” between values parts separate entries of the source, which are not always exact repeats. Identical values can stand only once. Like-named read-outs stand apart in the source and are kept apart here. No end group written: not given here.
# What was measured:
# IgG = details: cited from earlier work
# intact HIgG = experiment: Secondary screening, batch format, competitive and non-competitive modes; type: binding, human; details: for Bound %, HIgG, Competitive / Bound %, HIgG, Non-competitive (Micro-BCA): first round; for Bound %, HIgG, Competitive: 14C-HIgG 1 μM spiked in MEM (10% FCS, 5% TPB), radiolabel extent 3.6%; for Bound %, HIgG, Non-competitive (Micro-BCA): pure HIgG 1 μM in PBS; for Competitive condition, Bound / Competitive condition, Unbound / Non-competitive, Bound / Non-competitive, Unbound: second round; for Competitive condition, Bound / Competitive condition, Unbound: HIgG in MEM, radiolabel extent 2.9%; for Non-competitive, Bound / Non-competitive, Unbound: HIgG in PBS
# Procedure: (§1) The batch format was used in both competitive and non-competitive modes. The non-competitive mode involved screening using only pure target proteins in PBS buffer. For the competitive mode, target proteins were spiked into mammalian culture medium MEM (Minimum Essential Medium) containing 10% fetal calf serum (FCS) and 5% tryptose phosphate broth (TPB).
# (§2) Two target proteins, the Fc fragment of human IgG (HIgG) and intact HIgG, were applied at a concentration of 1 μM. To carry out the secondary screening, 20 mg of the re-synthesized resins were swelled with 20% methanol for one hour, then washed thoroughly and equilibrated with PBS buffer. The beads were incubated with 400 μl of 1 μM 14C-Fc or 14C-IgG in the corresponding solutions in a 0.5 ml centrifuge filter with a 0.45 μm Durapore membrane (Millipore, Milford, Mass.) on a rotating plate for two hours. The particles were washed with PBS buffer for 15 min, and then sequentially washed for one hour each with 400 of: 1 M NaCl in PBS, then 2% acetic acid (AcOH) and 6 M guanidine chloride (GdnHCl). After centrifugation each solution was collected into scintillation fluid for radioactivity counting. The total unbound protein was determined by combining the counts of unbound protein and the wash of PBS. Finally, resins were suspended in scintillation liquid and counted for radioactivity in the same manner, allowing a total radioactivity balance.
# [1] = test system: Fc fragment of human IgG (HIgG); experiment: as above; type: binding; details: first round; for Bound %, Fc fragment, Non-competitive: 14C-Fc 1 μM in PBS; for Bound %, Fc fragment, Competitive: 14C-Fc 1 μM spiked in MEM (10% FCS, 5% TPB)
# Procedure: as §1, §2
# HIgG = experiment: Adsorption isotherm measurements, Langmuir model; type: binding, human
# Procedure: Individual peptide sequences determined to bind the Fc fragment of HIgG in primary screening were synthesized directly onto Toyopearl AF-amino-650 M resin (Tosoh BioSciences, Montgomeryville, Pa.) at a substitution of 100 μmol/g resin (Peptides International, Louisville, Ky.). […] Adsorption isotherms were measured in a set of batch experiments at room temperature. All the experiments were performed at least in duplicate. Beads were washed thoroughly and equilibrated with PBS buffer. Centrifugal filters (0.5 ml) with 0.45 μm Durapore membranes (Millipore, Milford, Mass.) were used as adsorption vessels. Resins (10 mg of resin in each vessel) were then equilibrated overnight in PBS, pH 7.4 (Sigma Chemical, St. Louis, Mo.). After removing the PBS, 400 μl of HIgG solutions with concentrations from 0.05 to 10 mg/ml in PBS were added separately to the reaction vessels and incubated on an orbital shaker for 2 hours. The unbound HIgG fractions were collected by centrifugation and the protein concentrations were determined using a Micro-BCA Assay (Pierce, Rockford, Ill.) or by UV-absorbance at 280 nm. The amount of bound HIgG was calculated by mass balance. The data were fit to a Langmuir isotherm model (see Equation 2, below).
# where, q=Concentration of bound adsorbate mg-protein/g-resin C=Concentration of free adsorbate mg-protein/ml-solution Kd=Dissociation constant mg/ml qm=Maximum capacity constant mg-protein/g-resin
# [2] = Table 6, direct Langmuir fit, 0.1 meq/g, PBS pH 7.4
# [3] = substitution 0.080 mmol/g, read-out: Kd
# [4] = direct Langmuir fit, PBS pH 7.4, room temperature, peptides 0.1 meq/g, read-out: Kd, Langmuir
# [5] = direct Langmuir fit, PBS pH 7.4, peptides 0.1 meq/g
# [6] = double reciprocal curve, PBS pH 7.4, room temperature, peptides 0.1 meq/g, read-out: Kd, DR curve
# [7] = double reciprocal curve, PBS pH 7.4, peptides 0.1 meq/g
substance,measurement,setting,value
(RTY)4K2KG [TG19318 (PAM)],Capacity,IgG; Epoxy-activated Eupergit C30N support,25 mg/ml mg/ml gel
EPIHRSTLTALL (not fully specified) [literature peptide ligand on Amino-NuGel (Hoffman LaRoche)],Capacity,"IgG; Amino-NuGel support, IgG source culture",320 μg/g μg/g gel
HANGFL (not fully specified (C-terminus)) [hexapeptide ligand on Toyopearl resin],"Bound %, HIgG, Competitive",intact HIgG,5.58%
same,"Bound %, HIgG, Non-competitive (Micro-BCA)",intact HIgG,10.52%
same,"Bound %, Fc fragment, Non-competitive",[1],10.23%
same,"Bound %, Fc fragment, Competitive",[1],25.64%
HDVFHT (not fully specified (C-terminus)) [hexapeptide ligand on Toyopearl resin],"Competitive condition, Bound",intact HIgG,8.55%
same,"Competitive condition, Unbound",intact HIgG,91.45%
HEILYW (not fully specified (C-terminus)) [hexapeptide ligand on Toyopearl resin],"Bound %, HIgG, Competitive",intact HIgG,5.50%
same,"Bound %, HIgG, Non-competitive (Micro-BCA)",intact HIgG,9.16%
same,"Bound %, Fc fragment, Non-competitive",[1],18.01%
same,"Bound %, Fc fragment, Competitive",[1],3.20%
HFDKGF (not fully specified (C-terminus)) [hexapeptide ligand on Toyopearl resin],"Bound %, HIgG, Competitive",intact HIgG,6.01%
same,"Bound %, HIgG, Non-competitive (Micro-BCA)",intact HIgG,10.66%
same,"Bound %, Fc fragment, Non-competitive",[1],12.95%
same,"Bound %, Fc fragment, Competitive",[1],4.28%
HIQLDG (not fully specified (C-terminus)) [hexapeptide ligand on Toyopearl resin],"Competitive condition, Bound",intact HIgG,10.03%
same,"Competitive condition, Unbound",intact HIgG,89.97%
HIWA (not fully specified (C-terminus)),"Competitive condition, Bound",intact HIgG,12.87%
same,"Competitive condition, Unbound",intact HIgG,87.13%
same,"Non-competitive, Bound",intact HIgG,7.90%
same,"Non-competitive, Unbound",intact HIgG,92.10%
HLKWYA (not fully specified (C-terminus)) [hexapeptide ligand on Toyopearl resin],"Competitive condition, Bound",intact HIgG,23.47%
same,"Competitive condition, Unbound",intact HIgG,76.53%
HPWYVT (not fully specified (C-terminus)) [hexapeptide ligand on Toyopearl resin],"Competitive condition, Bound",intact HIgG,26.96%
same,"Competitive condition, Unbound",intact HIgG,73.04%
HRPKIF [HRPLIF],"Bound %, HIgG, Competitive",intact HIgG,4.51%
same,"Bound %, HIgG, Non-competitive (Micro-BCA)",intact HIgG,11.20%
same,"Bound %, Fc fragment, Non-competitive",[1],21.46%
same,"Bound %, Fc fragment, Competitive",[1],24.48%
"HVHYYW [hexapeptide ligand on Toyopearl resin, 0.1 meq/g]","Competitive condition, Unbound",intact HIgG,56.73%
same,"Non-competitive, Bound",intact HIgG,55.49%
same,"Non-competitive, Unbound",intact HIgG,44.51%
same,qm,HIgG; [2],129.0 mg/g
HVWQLK (not fully specified (C-terminus)) [hexapeptide ligand on Toyopearl resin],"Competitive condition, Bound",intact HIgG,15.05%
same,"Competitive condition, Unbound",intact HIgG,84.95%
HWGPTK (not fully specified (C-terminus)) [hexapeptide ligand on Toyopearl resin],"Competitive condition, Bound",intact HIgG,19.93%
same,"Competitive condition, Unbound",intact HIgG,80.07%
same,"Non-competitive, Bound",intact HIgG,14.39%
same,"Non-competitive, Unbound",intact HIgG,85.61%
HWIDPL (not fully specified (C-terminus)) [hexapeptide ligand on Toyopearl resin],"Competitive condition, Bound",intact HIgG,19.91%
same,"Competitive condition, Unbound",intact HIgG,80.09%
same,"Non-competitive, Bound",intact HIgG,9.03%
same,"Non-competitive, Unbound",intact HIgG,90.97%
"HWRGWV [Ac-HWRGWV, acetylated HWRGWV on resin, 0.080 mmol/g]",qm,HIgG; substitution 0.080 mmol/g,130 mg/g and 130.8 mg/g
same,Kd,HIgG; [3],3.8 µM
HWRGWV [hexapeptide ligand on Toyopearl AF-amino-650 M resin; 0.1 meq/g unless another substitution is stated],Kd,HIgG; [4],1.33 µM
same,"qm, Langmuir",HIgG; [5],50.0 mg/g
same,Kd,HIgG; [6],2.8 µM
same,"qm, DR curve",HIgG; [7],54.8 mg/g
same,qm,HIgG; substitution 0.022 mmol/g,158.1 mg/g
same,Kd,"HIgG; substitution 0.022 mmol/g, read-out: Kd",30 µM
same,qm,HIgG; substitution 0.040 mmol/g,147.8 mg/g
same,Kd,"HIgG; substitution 0.040 mmol/g, read-out: Kd",20.3 µM
same,qm,HIgG; substitution 0.080 mmol/g,130 mg/g and 131.8 mg/g
same,Kd,HIgG; [3],7.25 µM
same,qm,HIgG; substitution 0.10 mmol/g (different synthesis batch),133.6 mg/g
same,Kd,"HIgG; substitution 0.10 mmol/g (different synthesis batch), read-out: Kd",10.4 µM
same,qm,HIgG; substitution 0.22 mmol/g,136.8 mg/g
same,Kd,"HIgG; substitution 0.22 mmol/g, read-out: Kd",2.58 µM
same,qm,HIgG; substitution 0.55 mmol/g,137.6 mg/g
same,Kd,"HIgG; substitution 0.55 mmol/g, read-out: Kd",0.947 µM
"HYFKFD [hexapeptide ligand on Toyopearl resin, 0.1 meq/g]","Competitive condition, Unbound",intact HIgG,56.74%
same,"Non-competitive, Bound",intact HIgG,69.31%
same,"Non-competitive, Unbound",intact HIgG,30.69%
same,qm,HIgG; [2],126.8 mg/g
same,Kd,"HIgG; Table 6, direct Langmuir fit, 0.1 meq/g, PBS pH 7.4, read-out: Kd",11.4 µM
HYGLGW (not fully specified (C-terminus)) [hexapeptide ligand on Toyopearl resin],"Bound %, HIgG, Competitive",intact HIgG,14.48%
same,"Bound %, HIgG, Non-competitive (Micro-BCA)",intact HIgG,17.89%
same,"Bound %, Fc fragment, Non-competitive",[1],19.75%
same,"Bound %, Fc fragment, Competitive",[1],4.91%
HYIDAK (not fully specified (C-terminus)) [hexapeptide ligand on Toyopearl resin],"Competitive condition, Bound",intact HIgG,8.64%
same,"Competitive condition, Unbound",intact HIgG,91.36%
KGEA (not fully specified (C-terminus)),"Competitive condition, Bound",intact HIgG,7.34%
same,"Competitive condition, Unbound",intact HIgG,92.66%
same,"Non-competitive, Bound",intact HIgG,6.08%
same,"Non-competitive, Unbound",intact HIgG,93.92%
"KLQWVH (Immunoglobulin binding peptide sequence) [from KLQMVX, with the substitution of M with W and X with H]","Competitive condition, Bound",intact HIgG,12.15%
same,"Competitive condition, Unbound",intact HIgG,87.85%
"KRGFYY (Immunoglobulin binding peptide sequence) [combination of KRXXXX, KXXGX and aromatic amino acids F and YY]","Competitive condition, Bound",intact HIgG,17.27%
same,"Competitive condition, Unbound",intact HIgG,82.73%
Mannosylerythritol lipid,Capacity,IgG; Poly(2-hydroxyethyl methacrylate) support,106 mg/g mg/g gel
Protein A: protein A immobilized by the CNBr method to 4% cross-linked agarose beads (Amersham Biosciences); positive control [reference compound],Capacity,IgG; 4% cross-link agarose,20 mg/ml mg/ml moist gel
WHWRKR [reference compound],Kd,HIgG; [4],1.39 µM
same,"qm, Langmuir",HIgG; [5],62.4 mg/g
same,Kd,HIgG; [6],2.47 µM
same,"qm, DR curve",HIgG; [7],81.9 mg/g
truncation of the subunit GFRKYLHFRRHLL of a multiple antigenic peptide (MAP) (Immunoglobulin binding peptide sequence),"Competitive condition, Unbound",intact HIgG,59.13%
same,qm,HIgG; [2],157.9 mg/g
